Source: patent publication US20120239131A1, “METHODS AND APPARATUS FOR TREATMENT OF ANEURYSMAL TISSUE” (Medtronic Vascular, Inc., priority 2011, published 2012)

What was measured:
Format in all cases: in vivo, ApoE−/− mice
LOX = assay: Aortic mural gene expression, RT-PCR (TLDA); settings: fold change over ApoE−/− control; aorta, 28 days Ang II infusion
Description: (§1) ApoE−/− mice used in this study were divided into different pretreatment groups: 1) Fluvastatin-MF; 2) Doxycycline-MD; 3) Irbesartan-MI; 4) Telmisartan-MT; 5) Control (water) and fed medicated chow or medicated drinking water 1 week prior to pump implantation. AngII (1000 ng·kg^−1 of body weight·min^−1) was infused subcutaneously via Alzet mini-osmotic pumps for 28 days. All mice were maintained on the medicated chow (MI & MT) or medicated drinking water (MF & MD) treatments which were delivered daily for a total of 28 days following pump implantation.
(§2) In order to determine the effect of the various treatments on the progressive enlargement of the experimental AAAs the mice were followed with high frequency trans-abdominal ultrasound. Maximum aortic diameter was measured and recorded prior to pump implantation and then at 3, 7, 14, 21, and 28 days. All mice were sacrificed 28 days after pump implantation. Aortae were harvested and subjected to either histological analysis (Elastic Masson trichome, MAC2, CD31 and TUNEL staining) and analysis of mural gene expression. Plasma drug concentrations of experimental compounds were quantified on the day of sacrifice using high performance liquid chromatography (HPLC).
(§3) Total RNA was extracted from homogenized aortas using the Qiazol lysis reagent and RNeasy Lipid Tissue Mini kit. DNAse treatment was included in the procedure. RNA concentration was determined utilizing the Quant iT RNA assay kit. Complimentary deoxyribonucleic acid (cDNA) was synthesized from 1 μg RNA using High reverse cDNA transcription kit. Briefly the reaction tubes containing RNA, reverse transcriptase, buffer, RNAse inhibitor, and nuclease free water were incubated at 25° C. for 10 minutes to allow annealing. Reverse transcription was performed at 37° C. for 120 min, followed by a 5 sec incubation at 85° C. to inactivate the reverse transcriptase enzyme. The cDNA samples were cooled at 4° C. and stored at −80° C. until further use.
(§4) Real time PCR was performed using a 384-well Taqman low density array (TLDA) card. Each sample specific PCR mix contained 50 ng of total RNA converted to cDNA. The PCR reaction for Taqman assays contained 50 μl Master Mix (Taqman Universal PCR Master Mix,) and 50 ul of cDNA and RNAase free water. Assays were performed to include appropriate controls (no template control). The RT-PCR protocol included an initial step of 50° C. (2 minutes) […], denaturation by a hot start at 95° C. for 10 min, followed by 40 cycles of a 2 step program (denaturation at 95° C. for 15 secs for primer annealing/extension at 60° C. for 1 min). Fluorescence data was collected at 60° C. Fluorescence was quantified with ABI PRISM 7900HT Sequence Detection System. To verify amplification of a specific target cDNA, data generated was analyzed using SDS 2.2.3 software (Sequence Detection System Software, Applied Biosystems). For all amplification plots, the baseline data were set with the automatic CT function available with SDS 2.2.3 calculating the optimal baseline range and threshold value by using the AutoCT algorithm. According to the manufacturer's instruction, a CT value of ≧39 corresponds to nonspecific amplification marking the limits of detection. For endogenous control GAPDH was normalized to B2M. For relative quantification (RQ), pooled ApoE−/− control was used as the calibrator (with expression equal to 1).

CCL2 = assay: Aortic mural gene expression, RT-PCR (TLDA); settings: fold change over ApoE−/− control; aorta, 28 days Ang II infusion
Description: as §1, §2, §3, §4

Cathepsin B = assay: Aortic mural gene expression, RT-PCR (TLDA); settings: fold change over ApoE−/− control; aorta, 28 days Ang II infusion
Description: as §1, §2, §3, §4

CCR5 = assay: Aortic mural gene expression, RT-PCR (TLDA); settings: fold change over ApoE−/− control; aorta, 28 days Ang II infusion
Description: as §1, §2, §3, §4

Runx3 = assay: Aortic mural gene expression, RT-PCR (TLDA); settings: fold change over ApoE−/− control; aorta, 28 days Ang II infusion
Description: as §1, §2, §3, §4

ITGB2 = assay: Aortic mural gene expression, RT-PCR (TLDA); settings: fold change over ApoE−/− control; aorta, 28 days Ang II infusion
Description: as §1, §2, §3, §4

Fibronectin -1 = assay: Aortic mural gene expression, RT-PCR (TLDA); settings: fold change over ApoE−/− control; aorta, 28 days Ang II infusion
Description: as §1, §2, §3, §4

CXCR4 = assay: Aortic mural gene expression, RT-PCR (TLDA); settings: fold change over ApoE−/− control; aorta, 28 days Ang II infusion
Description: as §1, §2, §3, §4

Vav1 = assay: Aortic mural gene expression, RT-PCR (TLDA); settings: fold change over ApoE−/− control; aorta, 28 days Ang II infusion
Description: as §1, §2, §3, §4

TNF-α = assay: Aortic mural gene expression, RT-PCR (TLDA); settings: fold change over ApoE−/− control; aorta, 28 days Ang II infusion
Description: as §1, §2, §3, §4

CCR2 = assay: Aortic mural gene expression, RT-PCR (TLDA); settings: fold change over ApoE−/− control; aorta, 28 days Ang II infusion
Description: as §1, §2, §3, §4

IL-7 = assay: Aortic mural gene expression, RT-PCR (TLDA); settings: fold change over ApoE−/− control; aorta, 28 days Ang II infusion
Description: as §1, §2, §3, §4

Cybb = assay: Aortic mural gene expression, RT-PCR (TLDA); settings: fold change over ApoE−/− control; aorta, 28 days Ang II infusion
Description: as §1, §2, §3, §4

Osteopontin = assay: Aortic mural gene expression, RT-PCR (TLDA); settings: fold change over ApoE−/− control; aorta, 28 days Ang II infusion
Description: as §1, §2, §3, §4

Rac2 = assay: Aortic mural gene expression, RT-PCR (TLDA); settings: fold change over ApoE−/− control; aorta, 28 days Ang II infusion
Description: as §1, §2, §3, §4

HMOX 1 = assay: Aortic mural gene expression, RT-PCR (TLDA); settings: fold change over ApoE−/− control; aorta, 28 days Ang II infusion
Description: as §1, §2, §3, §4

MMP-8 = assay: Aortic mural gene expression, RT-PCR (TLDA); settings: fold change over ApoE−/− control; aorta, 28 days Ang II infusion
Description: as §1, §2, §3, §4

TIMP2 = assay: Aortic mural gene expression, RT-PCR (TLDA); settings: fold change over ApoE−/− control; aorta, 28 days Ang II infusion
Description: as §1, §2, §3, §4

Tgfβ1 = assay: Aortic mural gene expression, RT-PCR (TLDA); settings: fold change over ApoE−/− control; aorta, 28 days Ang II infusion
Description: as §1, §2, §3, §4

MMP-12 = assay: Aortic mural gene expression, RT-PCR (TLDA); settings: fold change over ApoE−/− control; aorta, 28 days Ang II infusion
Description: as §1, §2, §3, §4

MAPK8 = assay: Aortic mural gene expression, RT-PCR (TLDA); settings: fold change over ApoE−/− control; aorta, 28 days Ang II infusion
Description: as §1, §2, §3, §4

Cathepsin S = assay: Aortic mural gene expression, RT-PCR (TLDA); settings: fold change over ApoE−/− control; aorta, 28 days Ang II infusion
Description: as §1, §2, §3, §4

NFKb1 = assay: Aortic mural gene expression, RT-PCR (TLDA); settings: fold change over ApoE−/− control; aorta, 28 days Ang II infusion
Description: (§5) Total RNA was extracted from homogenized aortas using the Qiazol lysis reagent and RNeasy Lipid Tissue Mini kit. DNAse treatment was included in the procedure. RNA concentration was determined utilizing the Quant iT RNA assay kit. Complimentary deoxyribonucleic acid (cDNA) was synthesized from 1 μg RNA using High reverse cDNA transcription kit. Briefly the reaction tubes containing RNA, reverse transcriptase, buffer, RNAse inhibitor, and nuclease free water were incubated at 25° C. for 10 minutes to allow annealing. […] The cDNA samples were cooled at 4° C. and stored at −80° C. until further use.
(§6) Real time PCR was performed using a 384-well Taqman low density array (TLDA) card. Each sample specific PCR mix contained 50 ng of total RNA converted to cDNA. The PCR reaction for Taqman assays contained 50 μl Master Mix (Taqman Universal PCR Master Mix,) and 50 ul of cDNA and RNAase free water. Assays were performed to include appropriate controls (no template control). The RT-PCR protocol included an initial step of 50° C. […] Fluorescence data was collected at 60° C. Fluorescence was quantified with ABI PRISM 7900HT Sequence Detection System. To verify amplification of a specific target cDNA, data generated was analyzed using SDS 2.2.3 software (Sequence Detection System Software, Applied Biosystems). […] For relative quantification (RQ), pooled ApoE−/− control was used as the calibrator (with expression equal to 1).

CSF1 = assay: Aortic mural gene expression, RT-PCR (TLDA); settings: fold change over ApoE−/− control; aorta, 28 days Ang II infusion
Description: as §5, §6

[1] = tested on: genes involved in the pathophysiology of AAA; assay: Drug inhibition effect on differentially expressed genes, overall; settings: for Down-regulation of genes involved in the pathophysiology of AAA: ApoE−/− + Ang II AAA model, summary of Table 2; for Total Score: sum of heat map grades over 25 genes, ApoE−/− + Ang II group scored 55
Description: as §1, §2, §3, §4

Row | Structure (SMILES) | LOX expression (LOX) | CCL2 expression (CCL2) | Cathepsin B expression (Cathepsin B) | CCR5 expression (CCR5) | Runx3 expression (Runx3) | ITGB2 expression (ITGB2) | Fibronectin -1 expression (Fibronectin -1) | CXCR4 expression (CXCR4) | Vav1 expression (Vav1) | TNF-α expression (TNF-α) | CCR2 expression (CCR2) | IL-7 expression (IL-7) | Cybb expression (Cybb) | Osteopontin expression (Osteopontin) | Rac2 expression (Rac2) | HMOX 1 expression (HMOX 1) | MMP-8 expression (MMP-8) | TIMP2 expression (TIMP2) | Tgfβ1 expression (Tgfβ1) | MMP-12 expression (MMP-12) | further results
1 | CCCc1nc2c(C)cc(-c3nc4ccccc4n3C)cc2n1Cc1ccc(-c2ccccc2C(=O)O)cc1 [Telmisartan] | − (0 to 1 = −) | − (0 to 1 = −) | − (0 to 1 = −) | − (0 to 1 = −) | − (0 to 1 = −) | − (0 to 1 = −) | − (0 to 1 = −) | +++ (3.1 to 10 = +++) | − (0 to 1 = −) | − (0 to 1 = −) | − (0 to 1 = −) | + (1.1 to 1.5 = +) | − (0 to 1 = −) | − (0 to 1 = −) | − (0 to 1 = −) | − (0 to 1 = −) | − (0 to 1 = −) | − (0 to 1 = −) | − (0 to 1 = −) | − (0 to 1 = −) | MAPK8 expression (MAPK8): ++ (1.51 to 3 = ++); Cathepsin S expression (Cathepsin S): − (0 to 1 = −); NFKb1 expression (NFKb1): − (0 to 1 = −); CSF1 expression (CSF1): − (0 to 1 = −); Down-regulation of genes involved in the pathophysiology of AAA [1]: down-regulating the expression of genes; Total Score [1]: 6
2 | CC(C)n1c(/C=C/C(O)CC(O)CC(=O)O)c(-c2ccc(F)cc2)c2ccccc21 (stereo not shown) [Fluvastatin] | − (0 to 1 = −) | ++ (1.51 to 3 = ++) | + (1.1 to 1.5 = +) | +++ (3.1 to 10 = +++) | ++ (1.51 to 3 = ++) | ++ (1.51 to 3 = ++) | − (0 to 1 = −) | +++ (3.1 to 10 = +++) | ++ (1.51 to 3 = ++) | ++ (1.51 to 3 = ++) | +++ (3.1 to 10 = +++) | − (0 to 1 = −) | ++ (1.51 to 3 = ++) | ++++ (>10.1 = ++++) | + (1.1 to 1.5 = +) | +++ (3.1 to 10 = +++) | ++++ (>10.1 = ++++) | − (0 to 1 = −) | +++ (3.1 to 10 = +++) | +++ (3.1 to 10 = +++) | MAPK8 expression (MAPK8): − (0 to 1 = −); Cathepsin S expression (Cathepsin S): +++ (3.1 to 10 = +++); NFKb1 expression (NFKb1): − (0 to 1 = −); CSF1 expression (CSF1): − (0 to 1 = −); Down-regulation of genes involved in the pathophysiology of AAA [1]: down-regulating the expression of genes; Total Score [1]: 45
